In article PMC12389591, “Syzygium oleosum (F.Muell.) B.Hyland (Myrtaceae), an Unexplored Australian Species: Anatomical and Micromorphological Study of Leafy Twigs, and Characterization and Biological Activity of Their Essential Oil” (Plants, 2025):
Read-outs that look alike come from different tables or passages of the source. Marks after values point to notes of the source that are not given here.

Experiments:
[1] = β-Carotene Bleaching test (BCB); conditions: n = 3; for BCB IC50 (95% confidence limits): pure compounds tested at the concentration naturally present within the EO, n.r. = IC50 not reached
Experimental: (§1) The antioxidant and anti-inflammatory properties of S. oleosum and its major bioactive compounds were evaluated using different in vitro assays based on different mechanisms and reaction environments according to Smeriglio et al.. Results were expressed as the concentration required to inhibit 50% of the oxidative or inflammatory activity (IC50, µg/mL), with corresponding 95% confidence limits (C.L.) calculated using the Litchfield and Wilcoxon method with PHARM/PCS software (version 4; Consulting, Wynnewood, PA, USA).
In brief, 200 µL of EO (0.094–1.5 mg/mL), its main bioactive compounds (0.0289–0.4619 mg/mL, 0.0251–0.4019 mg/mL, 0.010–0.1604 mg/mL, and 0.0092–0.1479 mg/mL for terpinolene, β-pinene, α-pinene, and γ-terpinene), butylated hydroxytoluene (BHT, 1 mg/mL), or blank (0.1% DMSO) was added to 5 mL of β-carotene emulsion, prepared from 250 µL of β-carotene in ethyl acetate (1 mg/mL), 4 µL linoleic acid, and 40 µL Tween-40. An emulsion lacking β-carotene served as negative control. The mixtures were incubated at 50 °C for 2 h, and absorbance at 470 nm was measured at 20 min intervals using the same instrument as in Section TEAC Assay.

[2] = Iron-Chelating Activity assay (ICA); conditions: n = 3; for ICA IC50 (95% confidence limits): pure compounds tested at the concentration naturally present within the EO, n.r. = IC50 not reached
Experimental: (§2) The antioxidant and anti-inflammatory properties of S. oleosum and its major bioactive compounds were evaluated using different in vitro assays based on different mechanisms and reaction environments according to Smeriglio et al..
After 5 min at RT, 50 µL of ferrozine solution (5 mM) and deionized water were added to bring the total volume to 1.5 mL.

[3] = Trolox Equivalent Antioxidant Capacity assay (TEAC); conditions: n = 3; for TEAC IC50 (95% confidence limits): pure compounds tested at the concentration naturally present within the EO, n.r. = IC50 not reached
Experimental: as §1
To generate the 2,2′-azino-bis (3-ethylbenzothiazoline-6-sulfonic acid) (ABTS) radical cation solution, ABTS^+ (1.7 mM) was incubated with potassium persulfate (4.3 mM) in a 1:5 (v/v) ratio in the dark at room temperature (RT) for 12 h. The resulting solution was diluted to achieve an absorbance of 0.7 ± 0.02 at 734 nm. For the assay, 10 µL of either EO (ranging from 0.313 to 5 mg/mL), its main bioactive compounds (0.096–1.54 mg/mL, 0.084–1.34 mg/mL, 0.033–0.535 mg/mL, and 0.031–0.493 mg/mL for terpinolene, β-pinene, α-pinene, and γ-terpinene) or Trolox (0.625–10 µg/mL) was added to 200 µL of the ABTS solution and incubated at RT for 6 min. The absorbance at 734 nm was measured using a Multiskan™ GO UV-Vis microplate reader (Thermo Scientific, Waltham, MA, USA).

[4] = Oxygen Radical Absorbance Capacity assay (ORAC); conditions: n = 3; for ORAC IC50 (95% confidence limits): pure compounds tested at the concentration naturally present within the EO, n.r. = IC50 not reached
Experimental: as §1
ORAC activity was evaluated by combining 20 µL EO (ranging from 0.003 to 0.05 mg/mL), its main bioactive compounds (0.0010–0.0154 mg/mL, 0.0008–0.0134 mg/mL, 0.0003–0.0053 mg/mL, and […] for terpinolene, β-pinene, α-pinene, and γ-terpinene) or Trolox (0.25–2 µg/mL) with 120 µL of fluorescein solution (117 nM). After a 15-min pre-incubation at 37 °C, 60 µL of freshly prepared 2,2′-azobis (2-amidinopropane) dihydrochloride (AAPH) solution (40 mM) was added to initiate peroxyl radical formation. Fluorescence decay was monitored every 30 s for 90 min using excitation at 485 nm and emission at 520 nm on a FLUOstar Omega microplate reader (BMG LABTECH, Ortenberg, Germany).

BSA = BSA (Bos taurus, UniProt P02769); test: Inhibition of protein denaturation (ADA); type: biochemical; conditions: for ADA IC50 (95% confidence limits): pure compounds tested at the concentration naturally present within the EO, n = 3, n.r. = IC50 not reached
Sequence of BSA (P02769 25-607): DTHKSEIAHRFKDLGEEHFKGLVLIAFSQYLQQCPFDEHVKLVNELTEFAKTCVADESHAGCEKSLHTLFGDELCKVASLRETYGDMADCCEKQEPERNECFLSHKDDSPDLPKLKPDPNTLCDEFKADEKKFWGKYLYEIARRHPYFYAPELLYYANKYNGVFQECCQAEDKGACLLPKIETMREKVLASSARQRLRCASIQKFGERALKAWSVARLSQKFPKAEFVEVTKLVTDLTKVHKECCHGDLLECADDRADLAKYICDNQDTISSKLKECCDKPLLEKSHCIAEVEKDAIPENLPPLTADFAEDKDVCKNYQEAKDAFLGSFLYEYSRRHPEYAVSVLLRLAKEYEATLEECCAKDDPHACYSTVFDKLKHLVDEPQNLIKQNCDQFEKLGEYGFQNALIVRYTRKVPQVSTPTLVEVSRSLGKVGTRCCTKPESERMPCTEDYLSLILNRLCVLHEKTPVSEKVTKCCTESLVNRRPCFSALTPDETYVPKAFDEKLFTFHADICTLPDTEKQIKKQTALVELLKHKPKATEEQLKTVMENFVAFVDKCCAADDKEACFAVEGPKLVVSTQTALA

trypsin = target: T1, trypsin (Bos taurus, UniProt P00760); test: Inhibition of protease activity (PIA); type: biochemical; conditions: pure compounds tested at the concentration naturally present within the EO, n = 3, n.r. = IC50 not reached
T1 sequence (P00760 24-246): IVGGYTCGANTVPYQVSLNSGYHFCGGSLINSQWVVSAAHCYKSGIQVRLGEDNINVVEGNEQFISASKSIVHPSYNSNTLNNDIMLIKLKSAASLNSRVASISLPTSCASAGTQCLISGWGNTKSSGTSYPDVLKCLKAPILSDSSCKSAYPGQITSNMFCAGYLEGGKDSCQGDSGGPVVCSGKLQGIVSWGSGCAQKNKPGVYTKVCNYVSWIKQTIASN
Experimental: as §2
After a 20 min incubation at 37 °C, the reaction was halted with 400 µL of 2 M perchloric acid, followed by centrifugation at 3500 × g for 10 min.

[5] = Ferric Reducing Antioxidant Power assay (FRAP); conditions: n = 3; for FRAP IC50 (95% confidence limits): pure compounds tested at the concentration naturally present within the EO, n.r. = IC50 not reached
Experimental: as §1
In this assay, 10 µL of EO (ranging from 0.313 to 5 mg/mL), its main bioactive compounds (0.096–1.54 mg/mL, 0.084–1.34 mg/mL, 0.033–0.535 mg/mL, and 0.031–0.493 mg/mL for terpinolene, β-pinene, α-pinene, and γ-terpinene) or Trolox (1.25–10 µg/mL) was mixed with 200 µL of FRAP reagent, pre-incubated at 37 °C. The reagent consisted of 10 mM 2,4,6-Tris (2-pyridyl)-s-triazine (TPTZ) in 40 mM HCl, 20 mM FeCl3·6H2O, and 300 mM acetate buffer (pH 3.6). The mixture was incubated for 4 min at RT in the dark before measuring absorbance at 593 nm with the same microplate reader used in Section TEAC Assay.

[6] = target: butyrylcholinesterase (BChE) (Equus caballus, UniProt P81908); test: Cholinesterase inhibition, BChE; type: biochemical; conditions: pure compounds tested at the concentration naturally present in the EO, three experiments, n.r. = IC50 not reached
Sequence of butyrylcholinesterase (BChE) (P81908 whole entry): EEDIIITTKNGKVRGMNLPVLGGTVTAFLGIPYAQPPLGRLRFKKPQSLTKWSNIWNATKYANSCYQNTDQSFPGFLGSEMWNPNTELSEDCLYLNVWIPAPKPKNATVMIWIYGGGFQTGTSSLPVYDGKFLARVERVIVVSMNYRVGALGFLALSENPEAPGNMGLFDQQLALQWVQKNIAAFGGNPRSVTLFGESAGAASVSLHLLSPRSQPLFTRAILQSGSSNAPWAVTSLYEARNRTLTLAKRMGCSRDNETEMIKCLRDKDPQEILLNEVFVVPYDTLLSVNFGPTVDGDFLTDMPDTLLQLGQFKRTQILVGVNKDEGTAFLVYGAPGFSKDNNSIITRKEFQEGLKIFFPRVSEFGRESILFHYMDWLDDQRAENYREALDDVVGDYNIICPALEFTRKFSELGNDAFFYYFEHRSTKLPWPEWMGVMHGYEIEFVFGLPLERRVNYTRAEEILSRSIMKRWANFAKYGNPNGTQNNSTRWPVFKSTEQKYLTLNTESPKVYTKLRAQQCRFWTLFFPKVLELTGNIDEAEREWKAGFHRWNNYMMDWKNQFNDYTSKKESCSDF
Experimental: (§3) The cholinesterase inhibitory activity was evaluated according to the method described by Zheng and co-workers.

[7] = target: acetylcholinesterase (AChE) (Electrophorus electricus, UniProt O42275); conditions: pure compounds tested at the concentration naturally present in the EO, three experiments, n.r. = IC50 not reached
Sequence of acetylcholinesterase (AChE) (O42275 24-633): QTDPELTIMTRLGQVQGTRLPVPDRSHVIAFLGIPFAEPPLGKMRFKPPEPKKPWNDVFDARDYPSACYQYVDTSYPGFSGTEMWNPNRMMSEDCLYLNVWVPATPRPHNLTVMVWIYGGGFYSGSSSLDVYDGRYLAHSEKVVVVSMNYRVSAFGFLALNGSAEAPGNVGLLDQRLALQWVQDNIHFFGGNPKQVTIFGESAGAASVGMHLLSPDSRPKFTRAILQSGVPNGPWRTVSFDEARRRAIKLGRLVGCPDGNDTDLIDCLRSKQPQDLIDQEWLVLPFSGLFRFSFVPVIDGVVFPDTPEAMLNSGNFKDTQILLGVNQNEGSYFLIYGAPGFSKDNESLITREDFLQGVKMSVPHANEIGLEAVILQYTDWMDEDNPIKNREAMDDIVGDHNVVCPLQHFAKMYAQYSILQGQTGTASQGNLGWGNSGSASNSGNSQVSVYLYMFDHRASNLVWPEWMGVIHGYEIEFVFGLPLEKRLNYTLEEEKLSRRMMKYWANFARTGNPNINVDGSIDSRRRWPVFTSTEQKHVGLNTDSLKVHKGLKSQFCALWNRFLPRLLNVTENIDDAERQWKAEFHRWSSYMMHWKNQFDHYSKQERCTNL
Experimental: as §3

For Cc1cc(C(C)(C)C)c(O)c(C(C)(C)C)c1 [BHT, butylated hydroxytoluene], the “BCB IC50 (95% confidence limits), reference standard” value ([1]; RS BHT) was 0.35 (0.17–80.58) *** µg/mL.

For O=C(O)CN(CCN(CC(=O)O)CC(=O)O)CC(=O)O [EDTA], the “ICA IC50 (95% confidence limits), reference standard” value ([2]; RS EDTA) was 5.72 (2.32–87.13) *** µg/mL.

With CC1=CCC(=C(C)C)CC1 [Terpinolene] the “TEAC IC50 (95% confidence limits)” value [3] was “n.r”, the “TEAC IC50 (95% confidence limits)” value ([3]; listed as terpinolene) was “neither compound reached 50% inhibition” and the “ORAC IC50 (95% confidence limits)” value [4] was 0.01 (0.00–0.04) mg/mL. The IC50 (BSA) was 2350 µM, the “PIA IC50 (95% confidence limits)” value (trypsin) was “did not reach the IC50 threshold” and the “FRAP IC50 (95% confidence limits)” value [5] was “n.r”. The “FRAP IC50 (95% confidence limits)” value ([5]; listed as terpinolene) was “neither compound reached 50% inhibition”, the “ICA IC50 (95% confidence limits)” value [2] was “n.r” and the “ICA IC50 (95% confidence limits)” value ([2]; listed as terpinolene) was “no appreciable activity”. The “BCB IC50 (95% confidence limits)” value [1] was 0.21 (0.10–0.45) mg/mL.

In the case of Cc1c(C)c2c(c(C)c1O)CCC(C)(C(=O)O)O2 (centres unmarked) [trolox], the “TEAC IC50 (95% confidence limits), reference standard” value ([3]; RS trolox) is reported as 3.78 (1.48–9.67) *** µg/mL, the “ORAC IC50 (95% confidence limits), reference standard” value ([4]; RS trolox) is reported as 0.68 (0.22–82.17) *** µg/mL and the “FRAP IC50 (95% confidence limits), reference standard” value ([5]; RS trolox) is reported as 3.72 (1.60–8.66) *** µg/mL.

In the case of CC1=CCC2CC1C2(C)C (stereo not drawn) [α-Pinene], the “TEAC IC50 (95% confidence limits)” value [3] is reported as “n.r. ^b”, the “ORAC IC50 (95% confidence limits)” value [4] is reported as “n.r” and the “ADA IC50 (95% confidence limits)” value (BSA) is reported as “n.r”. For the same molecule, the “ADA IC50 (95% confidence limits)” value (BSA; listed as α-pinene) was “did not reach 50% inhibition”, the “FRAP IC50 (95% confidence limits)” value [5] was “n.r” and the “BCB IC50 (95% confidence limits)” value [1] was “inactive and n.r”. The “BChE IC50 ± standard deviation” value [6] was “n.r” and the “BChE IC50 ± standard deviation” value ([6]; listed as α-pinene) was “failed to reach the IC50 threshold”.

In the case of C=C1CCC2CC1C2(C)C (stereo not drawn) [β-Pinene], the “TEAC IC50 (95% confidence limits)” value [3] is reported as “neither compound reached 50% inhibition and n.r”, the “ORAC IC50 (95% confidence limits)” value [4] is reported as “n.r” and the “AChE IC50 ± standard deviation” value [7] is reported as “n.r”. The “AChE IC50 ± standard deviation” value ([7]; listed as β-pinene) was “did not achieve 50% inhibition”, the IC50 (BSA) was 2640 µM and the “PIA IC50 (95% confidence limits)” value (trypsin) was “did not reach the IC50 threshold and n.r”. The “FRAP IC50 (95% confidence limits)” value [5] was “neither compound reached 50% inhibition and n.r”, the “ICA IC50 (95% confidence limits)” value [2] was 0.03 (0.01–0.13) mg/mL and the “BCB IC50 (95% confidence limits)” value [1] was “n.r”. For the same molecule, the “BCB IC50 (95% confidence limits)” value ([1]; listed as β-pinene) was “inactive”, the “BChE IC50 ± standard deviation” value [6] was “n.r” and the “BChE IC50 ± standard deviation” value ([6]; listed as β-pinene) was “failed to reach the IC50 threshold”.

With CC1=CCC(C(C)C)=CC1 [γ-Terpinene] the “TEAC IC50 (95% confidence limits)” value [3] was “n.r”, the “ORAC IC50 (95% confidence limits)” value [4] was “n.r” and the “AChE IC50 ± standard deviation” value [7] was “n.r”. For the same molecule, the “AChE IC50 ± standard deviation” value ([7]; listed as γ-terpinene) was “did not achieve 50% inhibition”, the IC50 (BSA) was 807 µM and the “PIA IC50 (95% confidence limits)” value (trypsin) was “n.r”. The “PIA IC50 (95% confidence limits)” value (trypsin; listed as γ-terpinene) was “did not reach the IC50 threshold”, the “FRAP IC50 (95% confidence limits)” value [5] was “n.r” and the “ICA IC50 (95% confidence limits)” value [2] was “no appreciable activity and n.r”. For the same molecule, the “BCB IC50 (95% confidence limits)” value [1] was 0.02 (0.02–0.03) mg/mL, the “BChE IC50 ± standard deviation” value [6] was “n.r” and the “BChE IC50 ± standard deviation” value ([6]; listed as γ-terpinene) was “failed to reach the IC50 threshold”.
